Measured values from the supplement of paper PMC10307832.

Key:
Assay in all cases: relative viability (nuclei count vs DMSO), 5 days (fraction); higher = more cells survive
[1] = compound: CC[C@H](CO)Nc1nc(NCc2ccccc2)c2ncn(C(C)C)c2n1 [Seliciclib] + CC(C)C[C@H](NC(=O)[C@H](Cc1ccccc1)NC(=O)c1cnccn1)B(O)O [Bortezomib] (partner 0.002 µM)
Outline: (§1)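 A single step with final 0.05% Triton X-100, 1% formaldehyde and 1 ug/ml Hoechst fixed the cells and stained nuclei 5 days after treatment. Lung cancer cell lines in 1536-well plates had been treated by pin tool the day after seeding with one drug alone or a fixed anchor-drug dose plus five library-drug doses (not always all listed) in √10 steps, and nuclei were counted on 4× images. Relative viability is the ratio of nuclei in treated wells to nuclei in vehicle wells, taken as the median of duplicate plates.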

[2] = compound: CC[C@H](CO)Nc1nc(NCc2ccccc2)c2ncn(C(C)C)c2n1 [Seliciclib] + CC(=O)c1c(C)c2cnc(Nc3ccc(N4CCNCC4)cn3)nc2n(C2CCCC2)c1=O [Palbociclib] (partner 0.5 µM)
Outline: as §1

[3] = compound: CC[C@H](CO)Nc1nc(NCc2ccccc2)c2ncn(C(C)C)c2n1 [Seliciclib] + Cc1nc(Nc2ncc(C(=O)Nc3c(C)cccc3Cl)s2)cc(N2CCN(CCO)CC2)n1 [Dasatinib] (partner 0.075 µM)
Outline: as §1

[4] = compound: CC[C@H](CO)Nc1nc(NCc2ccccc2)c2ncn(C(C)C)c2n1 [Seliciclib] + CCNC(=O)c1noc(-c2cc(C(C)C)c(O)cc2O)c1-c1ccc(CN2CCOCC2)cc1 [Luminespib] (partner 0.01 µM)
Outline: as §1

Row | Cell Line | relative viability ([1]; first compound 0.08 µM) | relative viability ([1]; first compound 0.253 µM) | relative viability ([1]; first compound 0.8 µM) | relative viability ([1]; first compound 2.53 µM) | relative viability ([1]; first compound 8 µM) | relative viability ([2]; first compound 0.08 µM) | relative viability ([2]; first compound 0.253 µM) | relative viability ([2]; first compound 0.8 µM) | relative viability ([2]; first compound 2.53 µM) | relative viability ([2]; first compound 8 µM) | relative viability ([3]; first compound 0.08 µM) | relative viability ([3]; first compound 0.253 µM) | relative viability ([3]; first compound 0.8 µM) | relative viability ([3]; first compound 2.53 µM) | relative viability ([3]; first compound 8 µM) | relative viability ([4]; first compound 0.08 µM) | relative viability ([4]; first compound 0.253 µM) | relative viability ([4]; first compound 0.8 µM) | relative viability ([4]; first compound 2.53 µM) | relative viability ([4]; first compound 8 µM)
1 | HCC-78 | 0.532 | 0.471 | 0.433 | 0.373 | 0.396 | 0.504 | 0.438 | 0.514 | 0.395 | 0.382 | 0.427 | 0.416 | 0.371 | 0.259 | 0.28 | – | – | – | – | –
2 | NCI-H2085 | 0.759 | 1.09 | 1.1 | 1.03 | 0.841 | 0.472 | 0.44 | 0.419 | 0.41 | 0.314 | 0.219 | 0.274 | 0.256 | 0.294 | 0.251 | 0.508 | 0.462 | 0.414 | 0.398 | 0.372
3 | PC-14 | 0.832 | 0.836 | 0.877 | 0.846 | 0.701 | 0.444 | 0.65 | 0.517 | 0.391 | 0.275 | 0.288 | 0.396 | 0.269 | 0.215 | 0.23 | 0.179 | – | 0.114 | 0.135 | 0.203
4 | NCI-H358 | – | – | – | – | – | 0.13 | 0.167 | 0.133 | 0.105 | 0.107 | 0.196 | 0.153 | 0.148 | 0.129 | 0.137 | 0.31 | 0.385 | 0.21 | – | 0.186
5 | A-427 | 0.975 | 0.944 | 1.04 | 0.925 | 0.916 | 0.488 | 0.55 | 0.504 | 0.468 | 0.427 | 0.612 | 0.691 | 0.687 | 0.735 | 0.738 | 0.905 | 0.744 | 0.926 | 0.873 | 0.902
6 | H3255 | 0.833 | 0.828 | 0.753 | 0.605 | 0.625 | 0.344 | 0.314 | 0.306 | 0.26 | 0.293 | 0.341 | 0.447 | 0.335 | 0.279 | 0.324 | 0.868 | 1.05 | 0.94 | 0.833 | 0.917
7 | HCC-44 | 0.841 | 0.885 | 0.82 | 0.758 | 0.881 | 0.969 | 1.02 | 0.994 | 0.883 | 0.889 | – | – | – | – | – | 0.913 | 1.07 | 1.01 | 0.997 | 0.726
8 | NCI-H1734 | 0.873 | 0.833 | 0.882 | 1.08 | 0.824 | 0.35 | 0.26 | 0.369 | 0.286 | 0.282 | 0.488 | 0.426 | 0.493 | 0.295 | 0.335 | 0.186 | 0.199 | 0.181 | 0.159 | 0.222
9 | NCI-H2228 | 1.05 | 0.943 | 0.954 | 0.978 | 0.713 | 0.851 | 0.617 | 0.714 | 0.86 | 0.507 | 0.581 | 0.488 | 0.481 | 0.514 | 0.368 | 0.157 | 0.155 | 0.14 | 0.185 | 0.149
10 | ABC-1 | 0.318 | 0.312 | 0.296 | 0.274 | 0.339 | 0.673 | 0.565 | 0.863 | – | 0.562 | 0.536 | 0.566 | 0.598 | 0.524 | 0.509 | 0.447 | 0.753 | 0.478 | 0.378 | 0.396
11 | COR-L23 | 1.01 | 1.1 | 0.962 | 1.06 | 0.751 | 0.298 | 0.315 | 0.262 | 0.19 | 0.165 | 0.457 | 0.644 | 0.484 | 0.342 | 0.383 | 0.658 | 0.67 | 0.579 | 0.871 | 0.556
12 | NCI-H1944 | – | – | – | – | – | 0.354 | 0.312 | 0.28 | 0.261 | 0.268 | 0.242 | 0.198 | 0.208 | 0.17 | 0.205 | 0.69 | 0.716 | 0.613 | 0.791 | 0.549
13 | EBC-1 | 0.554 | 0.553 | 0.623 | 0.466 | 0.379 | – | – | – | – | – | – | – | – | – | – | – | – | – | – | –
14 | NCI-H596 | 1.1 | 0.892 | 0.96 | 1.19 | 0.914 | – | – | – | – | – | 0.658 | – | 0.594 | 0.606 | 0.515 | 0.802 | – | 1 | 0.84 | 0.745
15 | NCI-H2170 | – | – | – | – | – | 0.389 | – | 0.372 | 0.364 | 0.308 | 0.547 | 0.464 | 0.472 | 0.636 | 0.52 | 0.738 | 0.552 | 0.729 | 1.04 | 0.714
16 | NCI-H2342 | – | – | – | – | – | 0.63 | 0.477 | 0.539 | 0.524 | 0.492 | 0.328 | 0.336 | 0.313 | 0.301 | 0.319 | 0.658 | 0.525 | 0.662 | 0.699 | 0.648
17 | SK-MES-1 | – | – | – | – | – | 0.329 | 0.336 | 0.314 | 0.259 | 0.277 | 0.395 | 0.504 | 0.386 | 0.231 | 0.344 | 0.814 | 0.854 | 0.733 | 1.1 | 0.601
18 | NCI-H1703 | 0.416 | 0.297 | 0.371 | 0.353 | 0.249 | – | – | – | – | – | – | – | – | – | – | – | – | – | – | –
19 | NCI-H1648 | – | – | – | – | – | 0.259 | 0.332 | 0.308 | 0.231 | 0.169 | – | – | – | – | – | – | – | – | – | –
20 | NCI-H1563 | 0.856 | 0.79 | 0.892 | 0.806 | 0.861 | – | – | – | – | – | 0.536 | 0.525 | 0.503 | 0.416 | 0.428 | 0.479 | 0.518 | 0.526 | 0.49 | 0.453
21 | NCI-H1395 | – | – | – | – | – | 0.596 | 0.49 | 0.604 | – | 0.523 | 0.464 | 0.406 | 0.428 | 0.361 | 0.368 | 0.709 | 0.722 | 0.726 | 0.588 | 0.669
22 | NCI-H1793 | – | – | – | – | – | 0.28 | 0.258 | 0.289 | 0.289 | 0.224 | 0.33 | 0.323 | 0.414 | 0.37 | 0.482 | 0.216 | 0.158 | 0.147 | 0.307 | 0.14
